According to US8519184B2, “Synthesis of rare earth metal extractant” (Shin-Etsu Chemical Co., Ltd., priority 2010, dated 2013):
≈ marks a conversion by molar mass, not a printed value.

Experiments:
[1] = cited from earlier work
[2] = Extraction/separation test (solvent extraction, Nd/Pr); details: 20° C.
Description: An extraction/separation test was performed. […] The reaction product solution was diluted with hexane to form an organic solution having a DODGAA concentration of 0.3 mol/L, which might become an organic phase.
An extraction/separation test was performed. The concentration of DODGAA in the reaction product solution was computed from the amounts of reactants and synthesis medium. The reaction product solution was diluted with hexane to form an organic solution having a DODGAA concentration of 0.3 mol/L, which might become an organic phase. […]
An aqueous solution containing mixed rare earth metals was prepared by dissolving praseodymium chloride and neodymium chloride in water in a molar ratio Pr:Nd of 1:1 and a concentration (mol/L) of Pr+Nd as shown in Table 4 to form an aqueous solution which might become an aqueous phase. […] The concentrations of praseodymium and neodymium in the aqueous phase and the back-extracted aqueous hydrochloric acid solution were measured by an ICP atomic emission spectrometer ICP-7500 (Shimadzu Corp.).

[3] = Extractant state of reaction product; type: physicochemical; details: Table 2; reaction product at varied B/A (dioctylamine/diglycolic anhydride)
Description: An amount (designated A in Table 2) of diglycolic anhydride was suspended in 40 mL of hexane. Separately, an amount (designated B in Table 2) of dioctylamine was dissolved in 10 mL of hexane. With stirring, the dioctylamine solution was added dropwise to the diglycolic anhydride suspension. Stirring was continued at room temperature until it was confirmed that the solution became clear as a result of reaction of diglycolic anhydride. The reaction product was obtained in hexane solution. Table 2 also reports a ratio B/A that is a ratio of the amount (B mmol) of dioctylamine to the amount (A mmol) of diglycolic anhydride.
An aqueous solution containing mixed rare earth metals was prepared by dissolving praseodymium chloride and neodymium chloride in water in a molar ratio Pr:Nd of 1:1 and a concentration of 0.1 mol/L of Pr+Nd to form an aqueous solution, which might become an aqueous phase. A separatory funnel was charged with 100 mL of the organic solution and 100 mL of the aqueous solution and shaken at 20° C. for about 20 minutes to effect extraction. After equilibrium was reached, the liquid was allowed to separate into organic and aqueous phases. A separatory funnel was charged with 100 mL of the thus separated organic phase and 100 mL of 5N hydrochloric acid and shaken at 20° C. for about 20 minutes whereby the rare earth element once extracted into the organic phase was back-extracted into the aqueous hydrochloric acid solution. The concentrations of praseodymium and neodymium in the aqueous phase and the back-extracted aqueous hydrochloric acid solution were measured by an ICP atomic emission spectrometer ICP-7500 (Shimadzu Corp.).

[4] = Table 1, DODGAA 0.3 mol/L in hexane organic phase, Pr+Nd 0.1 mol/L aqueous, about 20 minutes

| SMILES | Extractant state [3] | other results |
| --- | --- | --- |
| CCCCCCCCN(CCCCCCCC)C(=O)COCC(=O)O [DODGAA, N,N-dioctyl-3-oxapentane-1,5-amic acid] |  | solubility in water [1]: 6.2 µM (≈ 2.22 µg/mL) |
| CCCCCCCCN(CCCCCCCC)C(=O)COCC(=O)O [Example 1, N,N-dioctyl-3-oxapentane-1,5-amic acid] |  | Nd/Pr separation factor [2, 4]: satisfactory |
| CCCCCCCCN(CCCCCCCC)C(=O)COCC(=O)O [Example 4, N,N-dioctyl-3-oxapentane-1,5-amic acid] | liquid |  |
| CCCCCCCCN(CCCCCCCC)C(=O)COCC(=O)O [Example 2, N,N-dioctyl-3-oxapentane-1,5-amic acid] | liquid |  |
| CCCCCCCCN(CCCCCCCC)C(=O)COCC(=O)O [Comparative Example 2, N,N-dioctyl-3-oxapentane-1,5-amic acid] | liquid |  |
| CCCCCCCCN(CCCCCCCC)C(=O)COCC(=O)O [Example 5, N,N-dioctyl-3-oxapentane-1,5-amic acid] | solid |  |
| CCCCCCCCN(CCCCCCCC)C(=O)COCC(=O)O [Comparative Example 1, N,N-dioctyl-3-oxapentane-1,5-amic acid] |  | Nd/Pr separation factor [2, 4]: satisfactory |
| CCCCCCCCN(CCCCCCCC)C(=O)COCC(=O)O [Example 3, N,N-dioctyl-3-oxapentane-1,5-amic acid] | liquid | Nd/Pr separation factor ([2]; Table 2, varied B/A, DODGAA 0.3 mol/L in hexane, Pr+Nd 0.1 mol/L): satisfactory |
